Data reported in ChEMBL document CHEMBL5360672, “Identification of Novel Dual-Target Estrogen Receptor α Degraders with Tubulin Inhibitory Activity for the Treatment of Endocrine-Resistant Breast Cancer” (J Med Chem, 2023).
The source made the active and inactive calls. No cut-off for these calls is given here.

Legend:
[1] = target: T1, Estrogen receptor (Homo sapiens) (UniProt P03372); test: Induction of ERalpha degradation in human MCF7 cells at 5 uM incubated for 24 hrs by Western blot analysis relative to SeCN-OBHSA derivatives; type: cell-based
T1 sequence (whole entry): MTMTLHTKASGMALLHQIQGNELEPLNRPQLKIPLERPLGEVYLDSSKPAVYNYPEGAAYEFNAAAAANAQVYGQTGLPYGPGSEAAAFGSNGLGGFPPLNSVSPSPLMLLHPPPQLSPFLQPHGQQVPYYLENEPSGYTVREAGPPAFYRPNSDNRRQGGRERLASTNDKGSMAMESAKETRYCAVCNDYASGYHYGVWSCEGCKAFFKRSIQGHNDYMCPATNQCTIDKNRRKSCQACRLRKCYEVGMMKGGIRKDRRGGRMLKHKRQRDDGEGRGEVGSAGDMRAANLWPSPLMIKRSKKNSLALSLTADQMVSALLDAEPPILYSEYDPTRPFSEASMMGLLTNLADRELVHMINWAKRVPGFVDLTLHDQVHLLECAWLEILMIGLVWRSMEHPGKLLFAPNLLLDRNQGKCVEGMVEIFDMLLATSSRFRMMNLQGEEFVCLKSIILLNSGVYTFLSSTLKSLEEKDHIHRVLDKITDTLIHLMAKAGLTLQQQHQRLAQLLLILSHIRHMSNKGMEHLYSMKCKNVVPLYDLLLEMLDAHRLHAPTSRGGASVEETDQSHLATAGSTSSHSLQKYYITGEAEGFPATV

T47D = test: Antiproliferative activity against ERalpha positive human T47D cells assessed as inhibition of cell proliferation incubated for 72 hrs by CCK8 assay; type: functional, cell-based
Mus musculus [2] = test: In vivo induction of ERalpha degradation in BALB/c nude mouse xenografted with human MCF7 cells assessed as decrease in ERalpha expression in tumor at 2 to 4 mg/kg, ip administered every other day for 20 days by Western blot analysis; type: functional, organism-based; conditions: dose 2-4 mg/kg, time 20.0 day
MCF7 [3] = test: Antiproliferative activity against ERalpha positive human MCF7 cells assessed as inhibition of cell proliferation incubated for 72 hrs by CCK8 assay; type: functional, cell-based; conditions: MCF7, 72 h
MCF7 [4] = test: Antitumor activity against human MCF7 cells xenografted in Balb/c nude mouse assessed as tumor growth inhibition at 4 mg/kg, ip administered every other day for 20 days relative to control; type: functional; conditions: MCF7, 480 h, time 20 day, read-out: TGI
[5] = target: T1, Estrogen receptor (Homo sapiens); test: Induction of ERalpha degradation in human MCF7 cells at 5 uM incubated for 24 hrs in the presence of MG-132 by Western blot analysis; type: cell-based
Tubulin (Homo sapiens) [6] = target: T2, Tubulin (Homo sapiens) (UniProt P68371+Q9H4B7+P0DPH7+P68366+Q13509+Q71U36+P04350+Q3ZCM7+P07437+P68363+Q9BQE3+Q6PEY2+Q13885+Q9BVA1+Q9BUF5); test: Disruption of microtubule network in human LCC2 cells assessed as ruptured microtubule network at 4 uM incubated for 48 hrs by DAPI staining based confocal laser scanning microscopic analysis; type: cell-based
[7] = Toxicity in Balb/c nude mouse xenografted with human MCF7 cells assessed as effect on heart morphology at 2 to 4 mg/kg, ip administered every other day for 20 days by H&E staining based analysis; type: organism-based; conditions: in vivo, 480 h, dose 2-4 mg/kg, time 20 day
MDA-MB-231 = test: Antiproliferative activity against ERalpha negative human MDA-MB-231 cells assessed as inhibition of cell proliferation incubated for 72 hrs by CCK8 assay; type: functional, cell-based; conditions: MDA-MB-231, 72 h
[8] = target: T1, Estrogen receptor (Homo sapiens); test: Binding affinity to human ERalpha assessed as relative binding affinity incubated under vibration for 1 min followed by 2 hrs incubation under dark condition by fluorescence polarization assay relative to estradiol; conditions: time 121.0 min
MCF7 [9] = test: Antitumor activity against human MCF7 cells xenografted in Balb/c nude mouse assessed as reduction in Ki67 positive cells at 2 to 4 mg/kg, ip administered every other day for 20 days by immunohistochemistry analysis; type: functional, organism-based; conditions: dose 2-4 mg/kg, time 20.0 day
[10] = target: T1, Estrogen receptor (Homo sapiens); test: Induction of ERalpha degradation in human MCF7 cells at 1 uM incubated for 6 to 24 hrs by Western blot analysis; type: cell-based; conditions: time 6-24 hrs
[11] = Selectivity index, ratio of IC50 for cytotoxicity against human MCF-10A cells to IC50 for antiproliferative activity against human MCF7 cells; type: toxicity, cell-based; conditions: MCF-10A cells and MCF7 cells, read-out: Ratio IC50
Homo sapiens = species: Homo sapiens; test: Selectivity ratio of relative binding affinity for human ERalpha to relative binding affinity to human ERbeta
Estrogen receptor = target: T3, Estrogen receptor (Homo sapiens, UniProt P03372); test: Antagonist activity at ERalpha (unknown origin) expressed in HEK293T cells co-expressing ERbeta and ERE-luciferase reporter assessed as reduction in relative light unit incubated for 24 hrs by dual-luciferase reporter assay; type: cell-based
T3 sequence (P03372 whole entry): T1 sequence (whole entry)

[12] = tested on: Estrogen receptor (Homo sapiens), P03372 [D538G]; test: Induction of ERalpha degradation in human T47D cells harboring ERalpha D538G mutant at 0.5 to 5 uM incubated for 24 hrs by Western blot analysis; type: cell-based; conditions: dose 0.5-5 µM
MCF7 [13] = test: Antitumor activity against human MCF7 cells xenografted in Balb/c nude mouse assessed as tumor growth inhibition at 2 mg/kg, ip administered every other day for 20 days relative to control; type: functional; conditions: MCF7, 480 h, time 20 day, read-out: TGI
Tubulin (Homo sapiens) [14] = target: T2, Tubulin (Homo sapiens); test: Inhibition of tubulin polymerization (unknown origin) at 30 uM incubated for 60 mins by microplate reader analysis; type: protein-complex assay
MCF7 [15] = test: Induction of cell cycle arrest in human MCF7 cells assessed as increase in G2/M phase cells at 0 to 8 uM incubated for 48 hrs by flow cytometry analysis (reference value: 20.10%); type: functional; conditions: dose 0-8 µM
[16] = target: T1, Estrogen receptor (Homo sapiens); test: Induction of ERalpha degradation in human MCF7 cells at 5 uM incubated for 24 hrs by Western blot analysis; type: cell-based
[17] = target: T1, Estrogen receptor (Homo sapiens); test: Induction of ERalpha degradation in human Tamoxifen-resistant LCC2 cells at 0.5 to 5 uM incubated for 6 to 24 hrs by Western blot analysis; type: cell-based; conditions: Tamoxifen-resistant LCC2 cell, dose 0.5-5 µM, time 6-24 hrs
[18] = target: T1, Estrogen receptor (Homo sapiens); test: Induction of ERalpha degradation in human MCF7 cells incubated for 6 to 24 hrs by Western blot analysis; type: cell-based; conditions: dose 0.5-5 µM, time 6-24 hrs
[19] = Antitumor activity against human Tamoxifen-resistant LCC2 cells xenografted in Balb/c nude mouse assessed as tumor growth inhibition at 2 mg/kg, ip administered every other day for 20 days relative to control; type: functional; conditions: Tamoxifen-resistant LCC2 cell, 480 h, time 20 day, read-out: TGI
[20] = target: Estrogen receptor beta (Homo sapiens) (UniProt Q92731); test: Binding affinity to human ERbeta assessed as relative binding affinity incubated under vibration for 1 min followed by 2 hrs incubation under dark condition by fluorescence polarization assay relative to estradiol; conditions: time 121.0 min
[21] = tested on: Tamoxifen-resistant LCC2 cell; test: Antitumor activity against human Tamoxifen-resistant LCC2 cells xenografted in Balb/c nude mouse assessed as reduction in Ki67 positive cells at 2 mg/kg, ip administered every other day for 20 days by immunohistochemistry analysis; type: functional, organism-based; conditions: time 20.0 day
Mus musculus [22] = test: In vivo induction of ERalpha degradation in BALB/c nude mouse xenografted with human tamoxifen-resistant LCC2 cells assessed as decrease in ERalpha expression in tumor at 2 mg/kg, ip administered every other day for 20 days by Western blot analysis; type: functional, organism-based; conditions: time 20.0 day

Chain of Estrogen receptor (Homo sapiens), P03372 [D538G] (P03372 whole entry D538G): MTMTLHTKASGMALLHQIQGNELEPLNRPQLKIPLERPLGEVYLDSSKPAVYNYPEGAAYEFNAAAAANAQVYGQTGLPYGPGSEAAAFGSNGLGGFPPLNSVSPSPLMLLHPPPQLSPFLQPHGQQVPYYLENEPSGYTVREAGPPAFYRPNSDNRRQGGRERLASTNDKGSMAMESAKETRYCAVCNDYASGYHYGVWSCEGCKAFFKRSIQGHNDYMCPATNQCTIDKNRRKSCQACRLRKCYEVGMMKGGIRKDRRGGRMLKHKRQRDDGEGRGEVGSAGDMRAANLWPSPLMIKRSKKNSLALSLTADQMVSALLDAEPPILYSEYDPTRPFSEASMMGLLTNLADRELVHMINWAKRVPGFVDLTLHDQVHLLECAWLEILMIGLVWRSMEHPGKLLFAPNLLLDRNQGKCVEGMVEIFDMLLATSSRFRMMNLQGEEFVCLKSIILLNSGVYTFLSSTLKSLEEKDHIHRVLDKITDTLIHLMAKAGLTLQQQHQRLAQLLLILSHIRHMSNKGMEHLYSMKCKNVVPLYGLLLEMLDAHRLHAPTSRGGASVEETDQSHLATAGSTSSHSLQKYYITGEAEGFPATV
Chain of Estrogen receptor beta (Homo sapiens) (Q92731 whole entry): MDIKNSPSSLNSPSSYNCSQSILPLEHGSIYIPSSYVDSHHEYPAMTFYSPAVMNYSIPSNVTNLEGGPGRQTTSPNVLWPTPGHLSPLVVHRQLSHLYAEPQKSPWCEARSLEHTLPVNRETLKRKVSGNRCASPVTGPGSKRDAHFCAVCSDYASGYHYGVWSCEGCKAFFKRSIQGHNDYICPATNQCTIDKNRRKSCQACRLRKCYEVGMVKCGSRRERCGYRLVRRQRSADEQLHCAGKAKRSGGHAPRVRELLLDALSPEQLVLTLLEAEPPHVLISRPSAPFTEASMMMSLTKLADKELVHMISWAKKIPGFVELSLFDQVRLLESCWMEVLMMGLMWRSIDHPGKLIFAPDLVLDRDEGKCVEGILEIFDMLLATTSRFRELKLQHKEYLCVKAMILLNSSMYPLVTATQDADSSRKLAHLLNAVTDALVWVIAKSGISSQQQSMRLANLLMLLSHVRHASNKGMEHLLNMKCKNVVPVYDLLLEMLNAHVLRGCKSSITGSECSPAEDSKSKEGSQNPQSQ

N#C[Se]CCCCCC(=O)Nc1ccc(C2=C(c3ccc(O)cc3)C3CC(S(=O)(=O)N(CC(F)(F)F)c4ccccc4F)C2O3)cc1 (stereo unspecified)
Activity [1]: Active | IC50 (T47D): 2.56 µM | Activity (Mus musculus [2]): Active | IC50 (MCF7 [3]): 0.06 µM | inhibition in vivo at 4 mg/kg (MCF7 [4]): 77.7% | Activity [5]: inactive | Activity (Tubulin (Homo sapiens) [6]): Active | Activity [7]: Non-Toxic | IC50 (MDA-MB-231): 3.75 µM | RBA [8]: 8.57% | Activity (MCF7 [9]): Active | Activity [10]: Active | selectivity ratio [11]: 264 | Selectivity ratio (Homo sapiens): 85.7 | IC50 (Estrogen receptor): 0.056 µM | Activity [12]: Active | inhibition in vivo at 2 mg/kg (MCF7 [13]): 74.6% | tubulin polymerization inhibition (active/not active) (Tubulin (Homo sapiens) [14]): Active | Activity (MCF7 [15]): 40.88% | Activity [16]: Active | Activity [17]: Active | Activity [18]: Dose-Dependent Effect | inhibition in vivo at 2 mg/kg [19]: 51.4% | RBA [20]: 0.1% | Activity [21]: Active | Activity (Mus musculus [22]): Active
